Test results: PubChem BioAssay AID248 (DTP/NCI, 2004)
Several values for one entry are separate records, joined by “and”; a condition that tells them apart may be missing. Equal entries are not always repeated. Inconclusive results and toxic doses are left out.

Test system: L1210 leukemia ip in BDF1 mice, survival T/C
Experiment: NCI In Vivo Anticancer Drug Screen. Data for tumor model L1210 Leukemia (intraperitoneal) in B6D2F1 (BDF1) mice
Details: higher = longer survival
Outline: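 Survival endpoint. Drug-treated group vs vehicle group, expressed as T divided by C. Tumor passaged by transplantation.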

## OC(C1CO1)C(O)C1CO1 (centres undefined)
endpoint: mean survival time, dose: 0.25 mg/kg/injection, schedule: Q03HX008 (ip), vehicle: saline
  T/C: 106 % of control
endpoint: mean survival time, dose: 0.35 mg/kg/injection, schedule: Q01DX009 (ip), vehicle: saline
  T/C: 94 % of control
endpoint: mean survival time, dose: 0.5 mg/kg/injection, schedule: Q01DX009 (ip), vehicle: saline
  T/C: 104 % of control
endpoint: mean survival time, dose: 0.5 mg/kg/injection, schedule: Q03HX008 (ip), vehicle: saline
  T/C: 115 % of control
endpoint: mean survival time, dose: 0.52 mg/kg/injection, schedule: Q01DX009 (ip), vehicle: saline
  T/C: 97 % of control
endpoint: mean survival time, dose: 0.61 mg/kg/injection, schedule: Q04DX003 (ip), vehicle: saline
  T/C: 104 % of control
endpoint: mean survival time, dose: 0.65 mg/kg/injection, schedule: Q01DX009 (ip), vehicle: water
  T/C: 110 % of control
endpoint: mean survival time, dose: 0.96 mg/kg/injection, schedule: Q01DX001 (ip), vehicle: saline
  T/C: 119 % of control
endpoint: mean survival time, dose: 1.0 mg/kg/injection, schedule: Q01DX009 (sc), vehicle: saline
  T/C: 121 % of control
endpoint: mean survival time, dose: 1.0 mg/kg/injection, schedule: Q03HX016 (ip), vehicle: saline
  T/C: 160 % of control
endpoint: mean survival time, dose: 1.0 mg/kg/injection, schedule: Q03HX024 (ip), vehicle: saline
  T/C: 170 % of control
endpoint: mean survival time, dose: 1.0 mg/kg/injection, schedule: Q04DX003 (ip), vehicle: saline
  T/C: 110 % of control and 116 % of control
endpoint: mean survival time, dose: 1.25 mg/kg/injection, schedule: Q04DX003 (ip), vehicle: saline
  T/C: 104 % of control
endpoint: mean survival time, dose: 1.3 mg/kg/injection, schedule: Q01DX009 (ip), vehicle: saline
  T/C: 175 % of control
endpoint: mean survival time, dose: 1.4 mg/kg/injection, schedule: Q01DX001 (ip), vehicle: saline
  T/C: 119 % of control
endpoint: mean survival time, dose: 1.4 mg/kg/injection, schedule: Q01DX009 (ip), vehicle: saline
  T/C: 184 % of control
endpoint: mean survival time, dose: 1.6 mg/kg/injection, schedule: Q01DX009 (ip), vehicle: water
  T/C: 102 % of control
endpoint: mean survival time, dose: 1.87 mg/kg/injection, schedule: Q01DX001 (ip), vehicle: saline
  T/C: 110 % of control
endpoint: mean survival time, dose: 2.0 mg/kg/injection, schedule: Q01DX001 (ip), vehicle: saline
  T/C: 116 % of control
endpoint: mean survival time, dose: 2.0 mg/kg/injection, schedule: Q03HX008 (ip), vehicle: saline
  T/C: 227 % of control
endpoint: mean survival time, dose: 2.0 mg/kg/injection, schedule: Q03HX016 (ip), vehicle: saline
  T/C: 218 % of control
endpoint: mean survival time, dose: 2.0 mg/kg/injection, schedule: Q03HX024 (ip), vehicle: saline
  T/C: 105 % of control
endpoint: mean survival time, dose: 2.0 mg/kg/injection, schedule: Q04DX003 (ip), vehicle: saline
  T/C: 123 % of control
endpoint: mean survival time, dose: 2.0 mg/kg/injection, schedule: Q08DX002 (ip), vehicle: saline
  T/C: 113 % of control
endpoint: mean survival time, dose: 2.5 mg/kg/injection, schedule: Q01DX009 (ip), vehicle: saline
  T/C: 118 % of control
endpoint: mean survival time, dose: 2.5 mg/kg/injection, schedule: Q04DX003 (ip), vehicle: saline
  T/C: 105 % of control and 115 % of control
endpoint: mean survival time, dose: 3.0 mg/kg/injection, schedule: Q01DX009 (ip), vehicle: saline
  T/C: 163 % of control and 186 % of control and 193 % of control
endpoint: mean survival time, dose: 3.0 mg/kg/injection, schedule: Q01DX009 (ip), vehicle: water
  T/C: 224 % of control
endpoint: mean survival time, dose: 3.2 mg/kg/injection, schedule: Q01DX009 (ip), vehicle: saline
  T/C: 120 % of control
endpoint: mean survival time, dose: 3.3 mg/kg/injection, schedule: Q01DX001 (ip), vehicle: saline
  T/C: 154 % of control
endpoint: mean survival time, dose: 3.75 mg/kg/injection, schedule: Q01DX001 (ip), vehicle: saline
  T/C: 118 % of control
endpoint: mean survival time, dose: 4.0 mg/kg/injection, schedule: Q01DX001 (sc), vehicle: saline
  T/C: 115 % of control
endpoint: mean survival time, dose: 4.0 mg/kg/injection, schedule: Q01DX009 (ip), vehicle: saline
  T/C: 160 % of control
endpoint: mean survival time, dose: 4.0 mg/kg/injection, schedule: Q04DX003 (ip), vehicle: saline
  T/C: 168 % of control and 170 % of control and 198 % of control
endpoint: mean survival time, dose: 4.0 mg/kg/injection, schedule: Q08DX002 (ip), vehicle: saline
  T/C: 155 % of control
endpoint: mean survival time, dose: 4.6 mg/kg/injection, schedule: Q01DX001 (ip), vehicle: saline
  T/C: 113 % of control
endpoint: mean survival time, dose: 4.6 mg/kg/injection, schedule: Q01DX009 (ip), vehicle: saline
  T/C: 89 % of control
endpoint: mean survival time, dose: 4.6 mg/kg/injection, schedule: Q04DX003 (ip), vehicle: saline
  T/C: 242 % of control and 112 % of control
endpoint: mean survival time, dose: 4.6 mg/kg/injection, schedule: Q08DX002 (ip), vehicle: saline
  T/C: 163 % of control
endpoint: mean survival time, dose: 5.0 mg/kg/injection, schedule: Q01DX001 (ip), vehicle: saline
  T/C: 214 % of control
endpoint: mean survival time, dose: 5.0 mg/kg/injection, schedule: Q01DX009 (ip), vehicle: saline
  T/C: 95 % of control and 204 % of control and 255 % of control
endpoint: mean survival time, dose: 5.0 mg/kg/injection, schedule: Q01DX009 (ip), vehicle: water
  T/C: 108 % of control
endpoint: mean survival time, dose: 5.0 mg/kg/injection, schedule: Q04DX003 (ip), vehicle: saline
  T/C: 124 % of control
endpoint: mean survival time, dose: 6.7 mg/kg/injection, schedule: Q04DX003 (ip), vehicle: saline
  T/C: 195 % of control and 227 % of control
endpoint: mean survival time, dose: 7.0 mg/kg/injection, schedule: Q01DX001 (ip), vehicle: saline
  T/C: 157 % of control and 240 % of control and 117 % of control
endpoint: mean survival time, dose: 7.0 mg/kg/injection, schedule: Q01DX009 (ip), vehicle: saline
  T/C: 97 % of control and 115 % of control
endpoint: mean survival time, dose: 7.0 mg/kg/injection, schedule: Q04DX003 (ip), vehicle: saline
  T/C: 284 % of control and 122 % of control
endpoint: mean survival time, dose: 7.0 mg/kg/injection, schedule: Q08DX002 (ip), vehicle: saline
  T/C: 191 % of control
endpoint: mean survival time, dose: 7.5 mg/kg/injection, schedule: Q01DX001 (ip), vehicle: saline
  T/C: 185 % of control
endpoint: mean survival time, dose: 7.5 mg/kg/injection, schedule: Q01DX009 (ip), vehicle: saline
  T/C: 169 % of control
endpoint: mean survival time, dose: 8.0 mg/kg/injection, schedule: Q01DX001 (ip), vehicle: saline
  T/C: 158 % of control
endpoint: mean survival time, dose: 8.0 mg/kg/injection, schedule: Q01DX001 (oral), vehicle: saline
  T/C: 200 % of control
endpoint: mean survival time, dose: 8.0 mg/kg/injection, schedule: Q04DX003 (ip), vehicle: saline
  T/C: 300 % of control and 304 % of control
endpoint: mean survival time, dose: 8.0 mg/kg/injection, schedule: Q08DX002 (ip), vehicle: saline
  T/C: 193 % of control
endpoint: mean survival time, dose: 10.0 mg/kg/injection, schedule: Q01DX009 (ip), vehicle: saline
  T/C: 88 % of control
endpoint: mean survival time, dose: 10.0 mg/kg/injection, schedule: Q04DX003 (ip), vehicle: saline
  T/C: 404 % of control and 448 % of control and 471 % of control
endpoint: mean survival time, dose: 10.6 mg/kg/injection, schedule: Q01DX001 (ip), vehicle: saline
  T/C: 308 % of control and 105 % of control
endpoint: mean survival time, dose: 11.25 mg/kg/injection, schedule: Q01DX009 (ip), vehicle: saline
  T/C: 91 % of control
endpoint: mean survival time, dose: 12.5 mg/kg/injection, schedule: Q01DX009 (ip), vehicle: saline
  T/C: 110 % of control
endpoint: mean survival time, dose: 15.0 mg/kg/injection, schedule: Q04DX003 (ip), vehicle: saline
  T/C: 161 % of control and 172 % of control and 368 % of control
endpoint: mean survival time, dose: 16.0 mg/kg/injection, schedule: Q01DX001 (ip), vehicle: saline
  T/C: 368 % of control
endpoint: mean survival time, dose: 16.0 mg/kg/injection, schedule: Q01DX001 (sc), vehicle: saline
  T/C: 180 % of control
endpoint: mean survival time, dose: 24.0 mg/kg/injection, schedule: Q04DX003 (ip), vehicle: saline
  T/C: 191 % of control
endpoint: mean survival time, dose: 64.0 mg/kg/injection, schedule: Q01DX001 (ip), vehicle: saline
  T/C: 97 % of control
endpoint: mean survival time, dose: 118.0 mg/kg/injection, schedule: Q08DX002 (ip), vehicle: saline
  T/C: 105 % of control
endpoint: median survival time, dose: 1.0 mg/kg/injection, schedule: Q01DX009 (sc), vehicle: water
  T/C: 111 % of control
endpoint: median survival time, dose: 2.0 mg/kg/injection, schedule: Q01DX009 (ip), vehicle: water
  T/C: 188 % of control
endpoint: median survival time, dose: 2.0 mg/kg/injection, schedule: Q04DX003 (ip), vehicle: water
  T/C: 122 % of control
endpoint: median survival time, dose: 2.0 mg/kg/injection, schedule: Q04DX003 (sc), vehicle: water
  T/C: 111 % of control
endpoint: median survival time, dose: 2.5 mg/kg/injection, schedule: Q01DX001 (ip), vehicle: water
  T/C: 122 % of control
endpoint: median survival time, dose: 4.0 mg/kg/injection, schedule: Q01DX009 (ip), vehicle: water
  T/C: 116 % of control
endpoint: median survival time, dose: 4.0 mg/kg/injection, schedule: Q01DX009 (sc), vehicle: water
  T/C: 105 % of control
endpoint: median survival time, dose: 4.0 mg/kg/injection, schedule: Q04DX003 (ip), vehicle: water
  T/C: 166 % of control
endpoint: median survival time, dose: 4.0 mg/kg/injection, schedule: Q04DX003 (sc), vehicle: water
  T/C: 155 % of control
endpoint: median survival time, dose: 8.0 mg/kg/injection, schedule: Q04DX003 (ip), vehicle: water
  T/C: 94 % of control
endpoint: median survival time, dose: 8.0 mg/kg/injection, schedule: Q04DX003 (sc), vehicle: water
  T/C: 100 % of control
endpoint: median survival time, dose: 10.0 mg/kg/injection, schedule: Q01DX001 (ip), vehicle: water
  T/C: 154 % of control
endpoint: median survival time, dose: 20.0 mg/kg/injection, schedule: Q01DX001 (ip), vehicle: water
  T/C: 103 % of control
endpoint: median survival time, dose: 40.0 mg/kg/injection, schedule: Q01DX001 (ip), vehicle: water
  T/C: 99 % of control
